{
  "source": "patent US20250092383A1",
  "about": "“COMPOUNDS AND METHODS FOR FBXO22-MEDIATED PROTEIN DEGRADATION” (Northwestern University, priority 2023, published 2025)",
  "format_in_all_cases": "cell-based",
  "key": {"FKBP12 (mouse FBXO22)": {"target": "T1, FKBP12 (mouse FBXO22) (UniProt P62942+Q78JE5)", "T1 construct": "expressed in transfected cells; host or cells: HEK293T", "T1 sequence (P62942 2-108)": "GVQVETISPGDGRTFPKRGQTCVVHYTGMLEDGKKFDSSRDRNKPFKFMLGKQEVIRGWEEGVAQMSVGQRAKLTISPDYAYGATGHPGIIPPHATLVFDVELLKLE", "T1 sequence (Q78JE5 whole entry)": "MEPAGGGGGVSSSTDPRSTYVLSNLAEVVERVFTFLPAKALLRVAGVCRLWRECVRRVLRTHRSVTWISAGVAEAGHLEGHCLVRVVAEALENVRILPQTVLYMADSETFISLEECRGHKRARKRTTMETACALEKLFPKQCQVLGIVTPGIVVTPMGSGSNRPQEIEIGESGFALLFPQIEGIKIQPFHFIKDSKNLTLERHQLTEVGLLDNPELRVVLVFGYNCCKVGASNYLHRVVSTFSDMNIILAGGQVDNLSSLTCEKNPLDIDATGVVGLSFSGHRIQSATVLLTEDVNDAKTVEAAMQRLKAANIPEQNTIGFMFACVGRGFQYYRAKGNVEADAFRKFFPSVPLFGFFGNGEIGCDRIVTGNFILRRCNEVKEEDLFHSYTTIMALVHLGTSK", "T1 sequence (P63208 whole entry partner)": "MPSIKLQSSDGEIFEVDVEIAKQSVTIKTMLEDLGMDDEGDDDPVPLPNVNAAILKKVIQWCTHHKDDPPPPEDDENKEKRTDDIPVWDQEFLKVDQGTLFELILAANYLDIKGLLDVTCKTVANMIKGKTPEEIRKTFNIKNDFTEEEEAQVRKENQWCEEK", "assay": "FKBP12 degradation in HEK293T cells expressing mouse FBXO22", "conditions": "HEK293T cells expressing mouse FBXO22 wildtype", "from_the_text": "(§1) FIGS. 3A-3H show FBXO22 C227 and C228 are involved in 22-SLF-mediated degradation of FKBP12. […] Among 5,650 quantified IA-DTB-modified peptides, four cysteines were identified on FBXO22 (C83, C117, C228, and C365). […] Data are presented as the mean values (n=2 biological independent samples for DMSO treatment; n=3 biological independent samples for 22-SLF Treatment). […] The bag graph represents quantification of the FLAG-FKBP12/HSP90 protein content. Data are presented as mean values (n=2 biological independent samples). […] The bar graph represents quantification of the FLAG-FKBP12/HSP90 protein content. Data are presented as the mean values (n=2 biological independent samples).\nIntriguingly, the peptide sequence containing the two consecutive cysteines (C227 and C228) is identical between human and mouse (FIG. 3f). To explore whether mouse FBXO22 can facilitate 22-SLF-induced FKBP12 degradation and if the conserved cysteines (C226 and C227 in mouse FBXO22) are pivotal, HEK293T cells expressing mouse FBXO22 wildtype, C226A, C227A, and C226AC227A, were generated."}, "FKBP12": {"target": "FKBP12 (Homo sapiens, UniProt P62942)", "sequence (P62942 whole entry)": "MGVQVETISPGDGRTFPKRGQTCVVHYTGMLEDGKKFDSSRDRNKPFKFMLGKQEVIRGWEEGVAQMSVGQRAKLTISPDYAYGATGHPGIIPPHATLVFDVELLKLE", "assay": "Western blot of FLAG-FKBP12 degradation in HEK293T cells expressing HA-FBXO22", "set-up": "expressed in transfected cells; host or cells: HEK293T", "conditions": "MG132 (1 μM), MLN4924 (1 μM), SLF (25 μM)", "experimental": "The bar graph represents quantification of the FLAG-FKBP12/HSP90 protein content. Data are presented as the mean values±s.e.m. […] HEK293T cells expressing HA-FBXO22 were treated with 0.025-15 μM 22-SLF for 8 h. The graph represents quantification of the FLAG-FKBP12/HSP90 protein content. Data are presented as the mean values (n=2 biological independent samples). […] The bar graph represents quantification of the FLAG-FKBP12/HSP90 protein content. KO, knockout; WT, wild type. Data are presented as the mean values (n=2 biological independent samples). […] The bar graph represents quantification of the FLAG-FKBP12/HSP90 protein content. Data are presented as the mean values±s.e.m. […] The result is representative of two independent experiments with similar results. WCL, whole-cell lysate; IP, immunoprecipitate.\nas §1\nFIG. 11A-11B show the acrylamide variant of 22-SLF, 22a-SLF, induced the degradation of FKBP12. […] HEK293T cells expressing HA-FBXO22 were treated with 0.5, 1, or 2 μM of 22-SLF or 22a-SLF for 8 hours. The graph represents quantification of the FLAG-FKBP12/HSP90 protein content. Data are presented as mean values (n=2 biological independent samples).\nNext, Western blot analysis was used to measure the degradation of FKBP12 induced by 22-SLF. To achieve this, FLAG-tagged FKBP12 and HA-tagged FBXO22 were stably overexpressed in HEK293T cells, followed by subjecting the cells to varying concentrations of 22-SLF. […] Moreover, 22-SLF's effect on FLAG-FKBP12 degradation was concentration-dependent (FIG. 2a). […] The rescue enabled by MLN4924 indicates the involvement of a Cullin-RING ligase (CRL) in the degradation process. This is consistent with FBXO22 belonging to SKP1-CUL1-F-box protein (SCF) ubiquitin ligase complexes, a subfamily of CRL. […] To provide a more comprehensive insight into 22-SLF-induced FKBP12 degradation, a dose-dependent degradation experiment using 11 concentrations of 22-SLF ranging from […] to 15 μM was conducted. This experiment enabled determination of two parameters, the Dmax value, which reached 89%, and the half-maximal degradation concentration (DC50) value, which measured at 0.5 μM (FIG. 2B). […] Collectively, this array of data supports the canonical mechanism of ligand-induced protein degradation. In this mechanism, 22-SLF orchestrates the recruitment of FBXO22 to FKBP12, culminating in the proteasomal degradation of FKBP12.\nTo identify the cysteine residue(s) in FBXO22 engaged with 22-SLF, HA-FBXO22-expressing HEK293T cells were treated with either DMSO or 22-SLF (2 μM, 2 hours). Using competitive cysteine-directed activity-based protein profiling (ABPP), a chemical proteomics for the measurement of target engagement, the degree of blockade of iodoacetamide-desthiobiotin (IA-DTB)-modified cysteines on FBXO22 was quantified. From a pool of 5,650 quantified IA-DTB-modified peptides, four cysteines on FBXO22 (C83, C117, C228, and C365) (FIG. 3a) were identified, with approximately 20% of FBXO22 C228 being blocked by 22-SLF treatment (FIG. 3b), indicating the potential interaction with this cysteine by 22-SLF. Consequently, C228 was mutated to alanine and HA-FBXO22 C228A-expressing HEK293T cells were generated (FIG. 3c). […]"}, "EML4-ALK fusion protein": {"target": "T2, EML4-ALK fusion protein (Homo sapiens, UniProt Q8NEZ5+Q9HC35+Q9UM73)", "T2 construct": "endogenous in cells; host or cells: H2228 wild type and FBXO22 knockout", "T2 sequence (Q9HC35+Q9UM73 fused)": "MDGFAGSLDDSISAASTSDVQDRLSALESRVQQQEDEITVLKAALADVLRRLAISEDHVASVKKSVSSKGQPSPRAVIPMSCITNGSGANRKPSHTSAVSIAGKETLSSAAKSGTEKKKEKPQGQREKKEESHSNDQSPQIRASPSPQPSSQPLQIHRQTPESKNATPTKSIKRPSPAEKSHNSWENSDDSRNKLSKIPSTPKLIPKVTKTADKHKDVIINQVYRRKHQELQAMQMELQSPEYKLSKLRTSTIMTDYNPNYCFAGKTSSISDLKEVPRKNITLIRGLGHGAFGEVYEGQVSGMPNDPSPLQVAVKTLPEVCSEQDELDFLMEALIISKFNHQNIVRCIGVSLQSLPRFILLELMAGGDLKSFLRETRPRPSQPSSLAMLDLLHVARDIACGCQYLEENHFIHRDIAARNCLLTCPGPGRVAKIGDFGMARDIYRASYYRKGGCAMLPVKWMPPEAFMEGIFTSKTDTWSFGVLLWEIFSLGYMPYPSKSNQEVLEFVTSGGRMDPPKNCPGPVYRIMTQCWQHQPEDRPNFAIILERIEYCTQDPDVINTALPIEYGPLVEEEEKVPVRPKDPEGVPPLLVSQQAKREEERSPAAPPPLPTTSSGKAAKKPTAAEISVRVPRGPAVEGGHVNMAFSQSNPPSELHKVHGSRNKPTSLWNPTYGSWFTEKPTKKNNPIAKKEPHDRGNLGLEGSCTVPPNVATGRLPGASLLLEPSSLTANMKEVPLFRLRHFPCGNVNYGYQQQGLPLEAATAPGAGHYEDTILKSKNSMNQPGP", "T2 sequence (Q8NEZ5 whole entry, the tested form may be a part)": "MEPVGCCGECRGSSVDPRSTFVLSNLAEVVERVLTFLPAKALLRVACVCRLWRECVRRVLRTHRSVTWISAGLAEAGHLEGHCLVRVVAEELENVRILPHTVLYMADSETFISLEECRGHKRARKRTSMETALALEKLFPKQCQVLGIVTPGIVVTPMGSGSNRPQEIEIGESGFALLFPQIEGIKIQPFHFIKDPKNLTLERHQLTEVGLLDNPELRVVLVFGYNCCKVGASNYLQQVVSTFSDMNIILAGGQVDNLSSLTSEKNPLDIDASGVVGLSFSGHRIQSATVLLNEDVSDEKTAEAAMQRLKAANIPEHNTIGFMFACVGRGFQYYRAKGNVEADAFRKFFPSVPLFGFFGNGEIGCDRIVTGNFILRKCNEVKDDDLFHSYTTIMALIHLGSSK", "T2 sequence (P63208 2-163 partner limits assumed)": "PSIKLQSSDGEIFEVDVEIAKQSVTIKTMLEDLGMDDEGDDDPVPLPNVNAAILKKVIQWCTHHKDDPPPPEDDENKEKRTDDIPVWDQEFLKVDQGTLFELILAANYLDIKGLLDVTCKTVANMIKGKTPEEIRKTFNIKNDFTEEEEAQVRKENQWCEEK", "T2 sequence (Q13616 whole entry partner, the tested form may be a part)": "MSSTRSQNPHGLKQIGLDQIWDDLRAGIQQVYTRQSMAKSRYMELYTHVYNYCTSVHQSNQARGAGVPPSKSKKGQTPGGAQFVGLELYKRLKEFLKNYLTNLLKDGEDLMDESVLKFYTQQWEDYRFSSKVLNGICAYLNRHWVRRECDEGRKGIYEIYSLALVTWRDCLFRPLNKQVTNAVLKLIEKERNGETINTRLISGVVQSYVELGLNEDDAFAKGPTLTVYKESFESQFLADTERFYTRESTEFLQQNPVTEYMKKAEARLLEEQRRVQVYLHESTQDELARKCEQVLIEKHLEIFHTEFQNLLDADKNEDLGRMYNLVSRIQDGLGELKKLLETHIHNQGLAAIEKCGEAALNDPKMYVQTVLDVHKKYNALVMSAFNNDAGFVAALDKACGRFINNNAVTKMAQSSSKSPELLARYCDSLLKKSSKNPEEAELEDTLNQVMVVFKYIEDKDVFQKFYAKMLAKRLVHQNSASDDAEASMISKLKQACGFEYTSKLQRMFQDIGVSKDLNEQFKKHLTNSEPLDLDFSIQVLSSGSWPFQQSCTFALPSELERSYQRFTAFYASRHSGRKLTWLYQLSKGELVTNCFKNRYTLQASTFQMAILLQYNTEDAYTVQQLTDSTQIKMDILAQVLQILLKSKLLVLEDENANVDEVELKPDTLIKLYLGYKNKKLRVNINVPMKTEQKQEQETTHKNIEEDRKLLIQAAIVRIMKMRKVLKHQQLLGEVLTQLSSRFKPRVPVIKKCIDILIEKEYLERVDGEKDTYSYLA", "T2 sequence (P62877 whole entry partner, the tested form may be a part)": "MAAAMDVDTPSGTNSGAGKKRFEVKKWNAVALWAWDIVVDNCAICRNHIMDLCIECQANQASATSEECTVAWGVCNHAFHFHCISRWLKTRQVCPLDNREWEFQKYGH", "assay": "EML4-ALK degradation in H2228 wild-type and FBXO22-knockout cells", "conditions": "1 and 2 μM, 24 h", "from_the_text": "(§2) FIGS. 5A-5E show harnessing FBXO22 for the degradation of BRD4 and EML4-ALK. […] The bar graph represents quantification of the BRD4/β-actin protein content. Data are presented as the mean values (n=2 biological independent samples). […] Data are presented as the mean values (n=2 biological independent samples). […] The bar graph represents quantification of the EML4-ALK/β-actin protein content. Data are presented as the mean values (n=2 biological independent samples).\n(§3) Next, the potential of FBXO22 to facilitate the degradation of additional proteins was investigated. Bromodomain-containing protein 4 (BRD4) was chosen due to its notable physiological role and the availability of a selective ligand, JQ1. The compound, 22-JQ1 (3) was synthesized by coupling the FBXO22 binding moiety to JQ1 (FIG. 5a). […] Subsequently, a global proteomic analysis was performed in A549 wild-type and FBXO22-knockout cells treated with 22-JQ1. […] 22-TAE incorporates the FBXO22 binding moiety coupled with a defined anaplastic lymphoma kinase (ALK) ligand (FIG. 5d). FBXO22 knockout was generated in H2228, a non-small cell lung cancer cell line expressing the echinoderm microtubule-associated protein-like 4 (EML4)-ALK fusion protein."}, "BRD4 [1]": {"target": "T3, BRD4 (Homo sapiens, UniProt O60885)", "T3 construct": "endogenous in cells; host or cells: A549 wild type and FBXO22 knockout", "assay": "BRD4 degradation in A549 wild-type and FBXO22-knockout cells (western blot)", "conditions": "1 and 2 μM, 24 h", "from_the_text": "as §2, §3"}, "BRD4 [2]": {"target": "T3, BRD4", "assay": "Global proteomic analysis in A549 wild-type and FBXO22-knockout cells treated with 22-JQ1", "conditions": "2 μM, 24 h", "from_the_text": "as §2, §3"}},
  "note": "Peptide text beside a SMILES is read from it. * marks the point of attachment. Cbz = O=C(OCc1ccccc1)*",
  "data": [
    {"smiles": "CC(C)C[C@@H](C=O)NC(=O)[C@H](CC(C)C)NC(=O)[C@H](CC(C)C)NC(=O)OCc1ccccc1", "note": "[MG132, reference compound] (Cbz-Leu-Leu-Leu-aldehyde)", "values": [
      {"measurement": "Blockade of 22-SLF-induced FKBP12 degradation, mouse FBXO22", "setting": "FKBP12 (mouse FBXO22)", "value": "blocked"},
      {"measurement": "Blockade of 22-SLF-induced loss of FLAG-FKBP12 expression", "setting": "FKBP12", "value": "blocked"}
    ]},
    {"smiles": "NS(=O)(=O)OC[C@@H]1C[C@@H](n2ccc3c(N[C@H]4CCc5ccccc54)ncnc32)C[C@@H]1O", "note": "[MLN4924, reference compound]", "values": [
      {"measurement": "Blockade of 22-SLF-induced FKBP12 degradation, mouse FBXO22", "setting": "FKBP12 (mouse FBXO22)", "value": "blocked"},
      {"measurement": "Blockade of 22-SLF-induced loss of FLAG-FKBP12 expression", "setting": "FKBP12", "value": "blocked"}
    ]},
    {"smiles": "COc1cc(N2CCN(CCOCCOCCN(C(=O)CCl)C(C(=O)NCc3ccccc3)c3nc4ccccc4s3)CC2)ccc1Nc1ncc(Cl)c(Nc2ccccc2S(=O)(=O)C(C)C)n1", "note": "(stereo not drawn) [22-TAE]", "values": [
      {"measurement": "EML4-ALK degradation, FBXO22-knockout H2228 cells", "setting": "EML4-ALK fusion protein", "value": "no such degradation was observed"},
      {"measurement": "EML4-ALK degradation, H2228 wild-type cells", "setting": "EML4-ALK fusion protein", "value": "induced the degradation of EML4-ALK fusion protein"}
    ]},
    {"smiles": "Cc1sc2c(c1C)C(c1ccc(Cl)cc1)=N[C@@H](CC(=O)NCCCOCCOCCOCCCN(C(=O)CCl)C(C(=O)NCc1ccccc1)c1nc3ccccc3s1)c1nnc(C)n1-2", "note": "(stereo partly drawn) [22-JQ1]", "values": [
      {"measurement": "BRD4 degradation, A549 FBXO22 knockout cells", "setting": "BRD4 [1]", "value": "abolished upon FBXO22 knockout"},
      {"measurement": "BRD4 degradation, A549 wild-type cells", "setting": "BRD4 [1]", "value": "promoted the degradation of BRD4"},
      {"measurement": "BRD4 degradation in global proteomics", "setting": "BRD4 [2]", "value": "potent degradation of BRD4 in A549 wild-type but not FBXO22-knockout cells"}
    ]}
  ]
}
